Data taken from patent US10381110B2, “Molecules” (University of Dundee, priority 2010, dated 2019).
Counter-ions that a name gives are not always drawn. Like-named read-outs stand apart in the source and are kept apart here.

What was measured:
dopamine D2 [1] = molecular target: T1, dopamine D2 (Homo sapiens, UniProt P14416); test: Secondary radioligand binding assay (Ki); conditions: for α1/D2: Table 22: Selectivity of Dopamine D2 over average of α1 Receptors; for α1A/D2 / α1B/D2 / α1D/D2: Table 22: Selectivity of Dopamine D2 over α1 Receptors, ratio of Ki
T1 sequence (P14416 whole entry, species assumed): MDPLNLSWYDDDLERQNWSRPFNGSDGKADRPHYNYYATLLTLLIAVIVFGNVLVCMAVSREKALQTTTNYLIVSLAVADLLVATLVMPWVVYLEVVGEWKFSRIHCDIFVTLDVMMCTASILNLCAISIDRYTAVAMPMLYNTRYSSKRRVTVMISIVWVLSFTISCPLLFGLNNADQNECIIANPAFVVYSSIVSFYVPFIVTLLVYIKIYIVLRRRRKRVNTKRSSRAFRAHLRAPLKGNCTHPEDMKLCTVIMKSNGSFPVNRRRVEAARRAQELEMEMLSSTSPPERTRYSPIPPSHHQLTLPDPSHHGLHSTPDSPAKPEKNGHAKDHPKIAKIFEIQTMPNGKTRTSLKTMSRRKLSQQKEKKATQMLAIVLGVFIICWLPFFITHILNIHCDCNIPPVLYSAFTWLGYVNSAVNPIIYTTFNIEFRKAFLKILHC
Procedure: (§1) Radioligand is diluted to five times the assay concentration (see Table 18) in Standard Binding Buffer. Typically, the assay concentration of radioligand is a value between one half the KD and the KD of a particular radioligand at its target. 50 μl aliquots of radioligand are dispensed into the wells of a 96-well plate containing 100 μl of Standard Binding Buffer. Then, duplicate 50 μl aliquots of the test and reference compound dilutions are added.
(§2) The 250 μl reactions are incubated at room temperature and shielded from light (to prevent photolysis of light-sensitive ligands) for 1.5 hours, then harvested by rapid filtration onto Whatman GF/B glass fiber filters pre-soaked with 0.3% polyethyleneimine using a 96-well Brandel harverster. Four rapid 500 μl washes are performed with chilled Standard Binding Buffer to reduce non-specific binding. Filters are placed in 6 ml scintillation tubes and allowed to dry overnight. The next day, 4 ml of EcoScint scintillation cocktail (National Diagnostics) are added to each tube. The tubes are capped, labeled, and counted by liquid scintillation counting. […] The filter mats are dried, then scintillant is melted onto the filters and the radioactivity retained on the filters is counted in a Microbeta scintillation counter.
(§3) Raw data (dpm) representing total radioligand binding (i.e. specific+non-specific binding) are plotted as a function of the logarithm of the molar concentration of the competitor (i.e. test or reference compound).
(§4) Assay Buffers: Dopamine Binding Buffer (50 mM NaCl, 50 mM HEPES-HCl, 5 mM MgCl2, 0.5 mM EDTA, pH 7.4)
(§5) Membrane Fraction Source: Transiently or stably transfected cell lines (e.g. HEK293, COS, CHO, NIH3T3)
(§6) The method is carried out in the manner described for the serotonin receptor assay above. Eleven dilutions (5× assay concentration) of the test and reference (see Table 19) compounds are prepared in Dopamine Binding Buffer by serial dilution, as previously described. Radioligand is diluted to five times the assay concentration (see Table 20) in Dopamine Binding Buffer.

dopamine D3 [2] = molecular target: T2, dopamine D3 (Homo sapiens, UniProt P35462); test: Secondary radioligand binding assay (Ki); conditions: for α1/D2: Table 23: Selectivity of Dopamine D3 over average of α1 Receptors; for α1A/D2 / α1B/D2 / α1D/D2: Table 23: Selectivity of Dopamine D3 over α1 Receptors, ratio of Ki
T2 sequence (P35462 whole entry): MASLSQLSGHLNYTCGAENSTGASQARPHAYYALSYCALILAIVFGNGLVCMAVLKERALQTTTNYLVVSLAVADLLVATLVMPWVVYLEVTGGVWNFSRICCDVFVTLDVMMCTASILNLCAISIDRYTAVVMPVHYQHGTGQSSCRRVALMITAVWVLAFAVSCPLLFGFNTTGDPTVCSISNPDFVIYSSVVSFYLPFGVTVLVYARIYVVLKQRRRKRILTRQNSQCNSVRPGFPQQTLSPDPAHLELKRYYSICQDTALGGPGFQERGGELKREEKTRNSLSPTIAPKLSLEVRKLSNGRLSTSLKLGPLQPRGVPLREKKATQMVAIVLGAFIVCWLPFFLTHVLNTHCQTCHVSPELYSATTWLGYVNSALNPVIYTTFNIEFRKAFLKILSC
Procedure: as §1, §2, §3, §4, §5, §6

5-HT5A = 5-HT5A (Homo sapiens, UniProt P47898); test: Secondary radioligand binding assay (Ki)
Chain of 5-HT5A (P47898 whole entry, species assumed): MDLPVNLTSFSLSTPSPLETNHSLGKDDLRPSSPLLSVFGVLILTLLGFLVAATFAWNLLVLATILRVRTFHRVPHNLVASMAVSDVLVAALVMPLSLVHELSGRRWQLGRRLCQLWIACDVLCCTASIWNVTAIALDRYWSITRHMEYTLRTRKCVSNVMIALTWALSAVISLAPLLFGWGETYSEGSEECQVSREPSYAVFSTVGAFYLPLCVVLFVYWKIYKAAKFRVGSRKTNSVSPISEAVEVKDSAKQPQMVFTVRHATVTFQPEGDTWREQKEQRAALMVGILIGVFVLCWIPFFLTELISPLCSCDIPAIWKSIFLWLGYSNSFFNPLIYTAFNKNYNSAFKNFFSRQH
Procedure: (§7) Assay Buffer: Standard Binding Buffer (50 mM Tris-HCl, 10 mM MgCl2, 1 mM EDTA, pH 7.4)
(§8) Membrane Fraction Source: Transiently or stably transfected cell lines (e.g., HEK293, COS, CHO, NIH3T3)
as §1, §2, §3

dopamine D2 [3] = molecular target: T1, dopamine D2; test: Primary radioligand binding assay (NIMH PDSP); conditions: primary radiobinding assay, [3H]N-methylspiperone; for D3 (% inh): test concentration or dose not given here; for D4 (% inh): test concentration or dose not given here
5HT1a [4] = molecular target: T3, 5HT1a (Homo sapiens, UniProt P08908); test: Primary radioligand binding assay (NIMH PDSP); conditions: primary radiobinding assay, [3H]8-OH-DPAT; note: test concentration or dose not given here
T3 sequence (P08908 1-422): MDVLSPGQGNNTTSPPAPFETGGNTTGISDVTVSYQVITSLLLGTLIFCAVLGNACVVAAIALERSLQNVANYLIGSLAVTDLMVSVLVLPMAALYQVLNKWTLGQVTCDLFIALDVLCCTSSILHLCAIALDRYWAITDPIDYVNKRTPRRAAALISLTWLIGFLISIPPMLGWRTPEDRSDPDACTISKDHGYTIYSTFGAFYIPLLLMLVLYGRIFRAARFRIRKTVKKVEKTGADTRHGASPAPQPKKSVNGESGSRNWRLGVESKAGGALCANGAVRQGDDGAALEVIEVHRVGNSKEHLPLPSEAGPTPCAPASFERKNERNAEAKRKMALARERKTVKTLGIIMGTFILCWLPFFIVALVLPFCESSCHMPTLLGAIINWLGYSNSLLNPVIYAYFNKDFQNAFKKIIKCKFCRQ

Alpha1D = molecular target: T4, Alpha1D (Homo sapiens, UniProt P25100); test: Primary radioligand binding assay (NIMH PDSP); conditions: primary radiobinding assay, [3H]Prazosin
T4 sequence (P25100 1-572): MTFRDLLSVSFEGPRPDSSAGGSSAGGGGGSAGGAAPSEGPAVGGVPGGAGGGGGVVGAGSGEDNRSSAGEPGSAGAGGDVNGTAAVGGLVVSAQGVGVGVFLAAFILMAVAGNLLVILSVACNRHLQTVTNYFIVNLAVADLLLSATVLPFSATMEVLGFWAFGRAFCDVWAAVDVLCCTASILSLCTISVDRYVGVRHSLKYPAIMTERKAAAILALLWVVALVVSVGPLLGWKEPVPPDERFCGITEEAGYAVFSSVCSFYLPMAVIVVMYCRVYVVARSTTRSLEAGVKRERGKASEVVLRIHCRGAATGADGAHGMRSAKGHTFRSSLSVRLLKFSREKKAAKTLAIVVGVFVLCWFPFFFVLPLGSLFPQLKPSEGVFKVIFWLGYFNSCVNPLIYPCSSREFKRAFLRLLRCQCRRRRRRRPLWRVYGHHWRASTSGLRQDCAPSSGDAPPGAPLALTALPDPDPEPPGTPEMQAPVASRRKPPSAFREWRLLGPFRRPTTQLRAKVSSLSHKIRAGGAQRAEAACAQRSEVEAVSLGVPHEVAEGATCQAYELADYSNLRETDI

5HT1a [5] = molecular target: T3, 5HT1a; test: Secondary radioligand binding assay (Ki); conditions: for α1/D2: Table 24: Selectivity of 5HT1A over average of α1 Receptors; for α1A/D2 / α1B/D2 / α1D/D2: Table 24: Selectivity of 5HT1A over α1 Receptors, ratio of Ki
Procedure: as §7, §8, §1, §2, §3

dopamine D5 = dopamine D5 (Homo sapiens, UniProt P21918); test: Primary radioligand binding assay (NIMH PDSP); conditions: primary radiobinding assay, [3H]SCH233930; note: test concentration or dose not given here
Chain of dopamine D5 (P21918 whole entry): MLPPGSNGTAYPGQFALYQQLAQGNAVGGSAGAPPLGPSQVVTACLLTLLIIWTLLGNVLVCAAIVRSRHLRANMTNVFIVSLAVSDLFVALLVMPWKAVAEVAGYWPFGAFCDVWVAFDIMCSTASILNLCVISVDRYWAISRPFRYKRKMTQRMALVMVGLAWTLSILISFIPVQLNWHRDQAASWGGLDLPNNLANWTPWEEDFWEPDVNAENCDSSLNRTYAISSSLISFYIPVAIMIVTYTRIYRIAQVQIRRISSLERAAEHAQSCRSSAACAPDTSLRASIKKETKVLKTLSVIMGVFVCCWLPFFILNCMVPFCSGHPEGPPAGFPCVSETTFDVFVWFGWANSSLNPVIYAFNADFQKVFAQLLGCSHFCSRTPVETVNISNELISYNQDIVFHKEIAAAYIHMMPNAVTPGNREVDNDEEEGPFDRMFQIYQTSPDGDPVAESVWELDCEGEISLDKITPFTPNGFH

Alpha1A = molecular target: T5, Alpha1A (Homo sapiens, UniProt P35348); test: Primary radioligand binding assay (NIMH PDSP); conditions: primary radiobinding assay, [3H]Prazosin; note: test concentration or dose not given here
T5 sequence (P35348 1-466): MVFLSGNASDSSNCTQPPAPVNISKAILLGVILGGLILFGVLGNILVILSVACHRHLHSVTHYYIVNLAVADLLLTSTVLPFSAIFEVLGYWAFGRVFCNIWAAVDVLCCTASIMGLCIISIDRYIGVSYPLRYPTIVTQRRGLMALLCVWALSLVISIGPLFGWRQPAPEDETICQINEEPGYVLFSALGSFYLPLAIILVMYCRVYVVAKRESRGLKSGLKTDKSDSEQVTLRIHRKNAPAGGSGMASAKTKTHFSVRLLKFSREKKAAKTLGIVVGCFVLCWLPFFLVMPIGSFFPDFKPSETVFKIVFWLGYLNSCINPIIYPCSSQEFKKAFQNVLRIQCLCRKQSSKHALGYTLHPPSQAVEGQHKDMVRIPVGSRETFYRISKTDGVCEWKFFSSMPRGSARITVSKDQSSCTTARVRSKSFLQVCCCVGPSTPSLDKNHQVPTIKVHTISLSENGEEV

dopamine D4 = molecular target: T6, dopamine D4 (Homo sapiens, UniProt P21917); test: Primary radioligand binding assay (NIMH PDSP); conditions: primary radiobinding assay, N-methylspiperone; for D3 (% inh): test concentration or dose not given here; for D4 (% inh): test concentration or dose not given here
T6 sequence (P21917 1-419): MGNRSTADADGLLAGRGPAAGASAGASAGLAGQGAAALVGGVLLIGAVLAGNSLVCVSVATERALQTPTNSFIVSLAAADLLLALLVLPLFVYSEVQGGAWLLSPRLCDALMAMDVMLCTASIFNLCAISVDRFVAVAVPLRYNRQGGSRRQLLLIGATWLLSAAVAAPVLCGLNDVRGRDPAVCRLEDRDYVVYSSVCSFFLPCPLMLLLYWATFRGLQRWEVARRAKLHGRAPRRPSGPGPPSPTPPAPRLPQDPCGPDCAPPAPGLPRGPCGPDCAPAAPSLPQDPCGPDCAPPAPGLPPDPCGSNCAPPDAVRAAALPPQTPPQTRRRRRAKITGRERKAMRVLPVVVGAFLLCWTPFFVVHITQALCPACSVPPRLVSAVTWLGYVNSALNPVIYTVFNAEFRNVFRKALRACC

dopamine D3 [6] = molecular target: T2, dopamine D3; test: Primary radioligand binding assay (NIMH PDSP); conditions: primary radiobinding assay, N-methylspiperone; for D3 (% inh): test concentration or dose not given here; for D4 (% inh): test concentration or dose not given here
α1A (Alpha1A) = molecular target: T7, α1A (Alpha1A) (Homo sapiens, UniProt P35348); test: Secondary radioligand binding assay (Ki)
T7 sequence (P35348 1-466): T5 sequence (P35348 1-466)
Procedure: as §1, §2, §3
Adrenergic Receptors: α1A, α1B, α2A, α2B, α2C, β1, β2, β3
as §5
The method is carried out in the manner described for the serotonin receptor assay above, except where described below. Eleven dilutions (5× assay concentration) of the test and reference (see Table 20) compounds are prepared in the appropriate buffer by serial dilution, as previously described. Radioligand is diluted to five times the assay concentration (see Table 21) in the appropriate buffer.
The 250 μl reactions are incubated at room temperature and shielded from light (to prevent photolysis of light-sensitive ligands) for 1 hour (for α1 receptors, 40 min for α2 receptors, and 1.5 hours for β receptors), then harvested by rapid filtration onto Whatman GF/B glass fiber filters pre-soaked with 0.3% polyethyleneimine using a 96-well Brandel harverster. Four rapid 500-μl washes are performed with chilled distilled water (for α1 and β receptors) or 0.1% polyethyleneimine (for α2 receptors) to reduce non-specific binding. Filters are placed in 6 ml scintillation tubes and allowed to dry overnight and the samples are treated to obtain data as described above.

dopamine D1 = dopamine D1 (Homo sapiens, UniProt P21728); test: Primary radioligand binding assay (NIMH PDSP); conditions: primary radiobinding assay, [3H]SCH233930; note: test concentration or dose not given here
Chain of dopamine D1 (P21728 whole entry): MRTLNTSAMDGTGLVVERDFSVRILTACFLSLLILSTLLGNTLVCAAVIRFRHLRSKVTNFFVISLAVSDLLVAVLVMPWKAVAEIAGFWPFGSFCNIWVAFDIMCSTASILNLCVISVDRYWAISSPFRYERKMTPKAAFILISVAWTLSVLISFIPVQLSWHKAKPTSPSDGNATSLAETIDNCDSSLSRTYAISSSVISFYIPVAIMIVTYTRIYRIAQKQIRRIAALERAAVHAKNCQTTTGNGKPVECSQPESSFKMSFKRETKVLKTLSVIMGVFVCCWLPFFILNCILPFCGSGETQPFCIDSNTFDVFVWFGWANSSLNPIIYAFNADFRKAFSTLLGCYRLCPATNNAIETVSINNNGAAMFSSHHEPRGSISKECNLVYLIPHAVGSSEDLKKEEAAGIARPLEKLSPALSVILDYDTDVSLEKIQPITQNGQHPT

[7] = read-out: Experimental Receptor Binding Data-Ki D2, Table 25, GPCR panel
[8] = read-out: Experimental Receptor Binding Data-Ki D3, Table 25, GPCR panel
[9] = read-out: Experimental Receptor Binding Data-Ki ALPHA_1A, Table 25, GPCR panel

SMILES | α1/D2 (dopamine D2 [1]) | α1A/D2 (dopamine D2 [1]) | α1B/D2 (dopamine D2 [1]) | α1D/D2 (dopamine D2 [1]) | α1/D2 (dopamine D3 [2]) | α1A/D2 (dopamine D3 [2]) | α1B/D2 (dopamine D3 [2]) | α1D/D2 (dopamine D3 [2]) | D2 (% inh) (dopamine D2 [3]) | 5ht1a (% inh) (5HT1a [4]) | Alpha1D (% inh) (Alpha1D) | α1/D2 (5HT1a [5]) | α1A/D2 (5HT1a [5]) | α1B/D2 (5HT1a [5]) | α1D/D2 (5HT1a [5]) | D5 (% inh) (dopamine D5) | Alpha1A (% inh) (Alpha1A) | D4 (% inh) (dopamine D4) | D3 (% inh) (dopamine D3 [6]) | D1 (% inh) (dopamine D1) | further results
COc1ccc2c(c1)C(=O)N(CCN1CCN(c3ccccc3OC)CC1)C2 [GFR-VII-280-HCl] | 0.008 | 0.005 | 0.017 | 0.003 | 0.1 | 0.05 | 0.16 | 0.03 | 69.8 % inh | 92 % inh | 98.7 % inh | 5.9 | 3.5 | 12.1 | 2.1 | 6 % inh | 101.5 % inh | 95.9 % inh | 95.7 % inh | 30 % inh | Ki (dopamine D2 [1]): 1740 nM; Ki (dopamine D3 [2]): 180 nM; Ki (5-HT5A): 2490 nM; Ki (5HT1a [5]): 2.4 nM; Ki (α1A (Alpha1A)): 8.5 nM
COc1ccc2c(c1)C(=O)N(CCN1CCN(c3ccccc3OC)CC1)C2 [GFR-VII-280] | 0.014 | 0.010 | 0.023 | 0.008 | – | 0.08 | 0.19 | 0.06 | 66.6 % inh | 92.4 % inh | 97.3 % inh | 6.4 | 4.5 | 11.1 | 3.5 | 21.8 % inh | 101.2 % inh | 97.2 % inh | 98.1 % inh | 29.3 % inh | Ki (dopamine D2 [1]; [7]): 1650 nM; Ki (dopamine D2 [1]; read-out: KiD2): 1650 nM; Ki (dopamine D3 [2]; [8]): 208 nM; Ki (dopamine D3 [2]; read-out: KiD3): 208 nM; Ki (5-HT5A; read-out: Experimental Receptor Binding Data-Ki 5HT5A, Table 25, GPCR panel): 2150 nM; Ki (5HT1a [5]; read-out: Experimental Receptor Binding Data-Ki 5HT1A, Table 25, GPCR panel): 3.5 nM; Ki (5HT1a [5]; read-out: Ki 5HT1A): 3.5 nM; Ki (α1A (Alpha1A); [9]): 15.9 nM; Ki (α1A (Alpha1A); read-out: Kiα1A): 15.9 nM
COc1ccc2c(c1)CN(CCCN1CCN(c3ccccc3OC)CC1)C2=O [GFR-VII-290] | 0.177 | 0.044 | 0.445 | 0.041 | 1.6 | 0.4 | 4.0 | 0.37 | 82.1 % inh | 98.3 % inh | 100.5 % inh | 12.7 | 3.2 | 32.0 | 2.9 | 32.5 % inh | 99.1 % inh | 97.3 % inh | 94.7 % inh | 54.5 % inh | Ki (dopamine D2 [1]; [7]): 1370 nM; Ki (dopamine D2 [1]; read-out: KiD2): 1370 nM; Ki (dopamine D3 [2]; [8]): 152 nM; Ki (dopamine D3 [2]; read-out: KiD3): 152 nM; Ki (5-HT5A): 2470 nM; Ki (5HT1a [5]; read-out: Ki 5HT1A): 19 nM; Ki (α1A (Alpha1A); [9]): 59.9 nM; Ki (α1A (Alpha1A); read-out: Kiα1A): 59.9 nM
